Literature values in article PMC3068529 (Journal of the American Chemical Society, 2011).

Biological target: T1, TLR3 (Homo sapiens, UniProt O15455)
T1 sequence (O15455 24-904): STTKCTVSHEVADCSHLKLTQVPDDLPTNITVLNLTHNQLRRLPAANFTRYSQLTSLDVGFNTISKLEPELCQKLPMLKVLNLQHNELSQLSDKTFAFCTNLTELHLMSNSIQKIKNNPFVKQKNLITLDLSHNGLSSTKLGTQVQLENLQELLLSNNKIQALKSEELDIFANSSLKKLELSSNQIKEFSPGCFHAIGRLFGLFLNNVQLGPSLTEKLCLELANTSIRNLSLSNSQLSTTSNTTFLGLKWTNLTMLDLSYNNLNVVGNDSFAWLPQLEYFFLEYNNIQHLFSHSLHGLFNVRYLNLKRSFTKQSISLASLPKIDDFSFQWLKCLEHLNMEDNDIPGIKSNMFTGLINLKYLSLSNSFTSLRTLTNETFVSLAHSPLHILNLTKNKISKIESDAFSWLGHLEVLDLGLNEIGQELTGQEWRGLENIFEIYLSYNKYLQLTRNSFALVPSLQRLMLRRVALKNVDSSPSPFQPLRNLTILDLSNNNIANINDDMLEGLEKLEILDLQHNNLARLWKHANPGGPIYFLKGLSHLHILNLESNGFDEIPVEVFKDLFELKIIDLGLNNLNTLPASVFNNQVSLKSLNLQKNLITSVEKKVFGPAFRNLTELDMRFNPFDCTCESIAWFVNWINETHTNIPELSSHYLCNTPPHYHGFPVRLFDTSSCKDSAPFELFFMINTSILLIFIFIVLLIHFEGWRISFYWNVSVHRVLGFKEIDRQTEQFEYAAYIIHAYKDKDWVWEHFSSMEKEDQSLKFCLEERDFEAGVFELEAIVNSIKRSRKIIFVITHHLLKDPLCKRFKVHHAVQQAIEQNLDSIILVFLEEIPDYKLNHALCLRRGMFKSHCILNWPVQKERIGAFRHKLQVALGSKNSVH
Details: dsRNA binding to TLR3

Question: With “polyriboinosinic:polyribocytidylic acid [dsRNA]” as the substance, how does the Kd read?
Answer: 19 ± 0.9 nM
